15 compounds from US9822147B2, “Methods of treating ophthalmic diseases using NPR-B agonists” (priority 2009, dated 2017) can be followed below.

The structures appear in SMILES notation. pEC50: −log10 of the molar value. Numbered stars: 1 amine (or outer) side, 2 acyl side, 3 side chain; on linkers, the order of the positions; unused ones are H or OH. Square brackets hold non-standard residues; d marks the D form. Peptide text beside a SMILES is read from it. * marks the point of attachment. X3 = NCCN[C@@H]1C[C@@H](C(=O)[*:2])N([*:1])C1; Phe(4-Br) = N[C@@H](Cc1ccc(Br)cc1)C(=O)O; Phe(4-Me) = Cc1ccc(C[C@H](N)C(=O)O)cc1; Pro(4R-NH2) = N[C@H]1CN[C@H](C(=O)O)C1; X2 = O=C([C@H]1CCCN([*:1])C1)[*:2]; X1 = CCCCCCCCN1CCC[C@H](C(=O)*)C1; Hyp = O=C(O)[C@@H]1C[C@@H](O)CN1; NHcycloheptyl = C1CCCC(N*)CC1; NMeL = CN[C@@H](CC(C)C)C(=O)O; dNle = CCCC[C@@H](N)C(=O)O; Octanoyl = CCCCCCCC(=O)* A value given as a limit tells only on which side of the number the result lay.

This assay concerns the target T1, NPR-B (Homo sapiens, UniProt P20594).
T1 construct: a functional assay using endogenously NPR-B expressing GTM-3 cells; endogenous in cells; host or cells: GTM-3 (human glaucoma trabecular meshwork cells)
T1 sequence (P20594 23-1047): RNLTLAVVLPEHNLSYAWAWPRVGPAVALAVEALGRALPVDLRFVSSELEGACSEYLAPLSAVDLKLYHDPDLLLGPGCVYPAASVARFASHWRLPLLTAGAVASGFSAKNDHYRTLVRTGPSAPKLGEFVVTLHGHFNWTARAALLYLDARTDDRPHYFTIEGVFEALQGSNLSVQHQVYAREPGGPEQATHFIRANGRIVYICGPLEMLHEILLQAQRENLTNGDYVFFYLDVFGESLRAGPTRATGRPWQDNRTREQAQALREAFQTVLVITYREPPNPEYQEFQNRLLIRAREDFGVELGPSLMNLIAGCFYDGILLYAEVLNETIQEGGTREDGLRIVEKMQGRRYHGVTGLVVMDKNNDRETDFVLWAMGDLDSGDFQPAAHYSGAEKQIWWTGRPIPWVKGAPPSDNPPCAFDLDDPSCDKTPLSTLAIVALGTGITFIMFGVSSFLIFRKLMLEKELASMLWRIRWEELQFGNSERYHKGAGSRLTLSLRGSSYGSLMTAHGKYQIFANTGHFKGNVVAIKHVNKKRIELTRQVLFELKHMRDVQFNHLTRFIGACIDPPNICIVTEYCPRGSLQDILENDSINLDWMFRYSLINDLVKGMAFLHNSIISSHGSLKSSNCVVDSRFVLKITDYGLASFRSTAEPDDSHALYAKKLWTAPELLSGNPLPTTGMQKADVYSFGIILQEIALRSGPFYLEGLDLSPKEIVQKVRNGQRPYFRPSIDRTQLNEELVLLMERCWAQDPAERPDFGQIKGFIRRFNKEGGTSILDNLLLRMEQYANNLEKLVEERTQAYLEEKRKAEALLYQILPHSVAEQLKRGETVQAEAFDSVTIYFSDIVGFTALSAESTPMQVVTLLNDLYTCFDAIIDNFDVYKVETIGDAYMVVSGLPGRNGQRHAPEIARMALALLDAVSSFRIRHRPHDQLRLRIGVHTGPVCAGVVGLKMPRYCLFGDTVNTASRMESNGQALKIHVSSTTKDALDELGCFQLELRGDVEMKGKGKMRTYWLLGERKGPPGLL
Nature of the assay: NPR-B induced production of cyclic GMP in human glaucoma trabecular meshwork cells (GTM-3). The assay is classed as cell-based. The conditions noted are these: group by EC50 and Emax (CNP = 100%); Table 4; read-out: Activity (group), NPR-B activation assayed with GTM-3 cells.
Take `CCCCCCCC(=O)N[C@H](C)C(=O)N[C@@H](Cc1ccccc1)C(=O)N[C@H](CC(C)C)C(=O)N[C@@H](CC(C)C)C(=O)N1C[C@H](O)C[C@H]1C(=O)N(C)[C@@H](CC(C)C)C(=O)N[C@@H](CC(=O)O)C(=O)N[C@@H](CCCNC(=N)N)C(=O)NC1(C(N)=O)CCCCC1` [JAL-1358, Occ-ala-Phe-leu-Leu-Hyp-Nml-Asp-Arg-Egz-NH2] (HELM PEPTIDE1{[CCCCCCCC(=O)[*:2]].[dA].F.[dL].L.[Hyp].[meL].D.R.[O=C(C1(N[*:1])CCCCC1)[*:2]].[am]}$$$$V2.0): the pEC50 is more than 6.00. `CCCCCCCC(=O)N[C@H](C)C(=O)N[C@@H](Cc1ccccc1)C(=O)N[C@H](CCCNC(=N)N)C(=O)N[C@@H](CC(C)C)C(=O)N1C[C@H](N)C[C@H]1C(=O)N[C@@H](CC(C)C)C(=O)N[C@@H](CC(=O)O)C(=O)N[C@@H](CCCNC(=N)N)C(=O)N[C@H](C(N)=O)[C@@H](C)CC` [JAL-1250, Occ-ala-Phe-arg-Leu-Tap-Leu-Asp-Arg-Ile-NH2] (HELM PEPTIDE1{[CCCCCCCC(=O)[*:2]].[dA].F.[dR].L.[N[C@@H]1C[C@@H](C(=O)[*:2])N([*:1])C1].L.D.R.I.[am]}$$$$V2.0): the pEC50 is more than 6.00. Turning to `CCCCCCCC(=O)N1CCC[C@H](C(=O)N[C@@H](Cc2ccccc2)C(=O)N[C@H](CCCCN)C(=O)N[C@@H](CC(C)C)C(=O)N2C[C@H](O)C[C@H]2C(=O)N(C)[C@@H](CC(C)C)C(=O)N[C@@H](CC(=O)O)C(=O)N[C@@H](CCCNC(=N)N)C(=O)N[C@H](C(N)=O)[C@@H](C)CC)C1` [JAL-1254, Occ-Sni-Phe-lys-Leu-Hyp-Nml-Asp-Arg-Ile-NH2] (HELM PEPTIDE1{[CCCCCCCC(=O)[*:2]].[O=C([C@H]1CCCN([*:1])C1)[*:2]].F.[dK].L.[Hyp].[meL].D.R.I.[am]}$$$$V2.0), the pEC50 was more than 6.00. Regarding `CCCCCCCC(=O)N1CCC[C@H](C(=O)N[C@@H](Cc2ccccc2)C(=O)N[C@H](CC(C)C)C(=O)N[C@@H](CC(C)C)C(=O)N2C[C@H](NCCN)C[C@H]2C(=O)N(C)[C@@H](CC(C)C)C(=O)N[C@@H](CC(=O)O)C(=O)N[C@@H](CCCNC(=N)N)C(=O)N[C@H](C(N)=O)[C@@H](C)CC)C1` [JAL-1371, Occ-Sni-Phe-leu-Leu-Tap(Ae)-Nml-Asp-Arg-Ile-NH2] (Octanoyl-[X2]F[dL]L[X3][NMeL]DRI-NH2), the pEC50 is more than 6.00. Take `CCCCCCCC(=O)N1CCCC[C@@H]1C(=O)N[C@@H](Cc1ccccc1)C(=O)N[C@H](CCCNC(=N)N)C(=O)N[C@@H](CC(C)C)C(=O)N1C[C@H](O)C[C@H]1C(=O)N(C)[C@@H](CC(C)C)C(=O)N[C@@H](CC(=O)O)C(=O)N[C@@H](CCCNC(=N)N)C(=O)N[C@H](C(N)=O)[C@@H](C)CC` [JAL-1087, Occ-pip-Phe-arg-Leu-Hyp-Nml-Asp-Arg-Ile-NH2] (HELM PEPTIDE1{[CCCCCCCC(=O)[*:2]].[O=C([C@H]1CCCCN1[*:1])[*:2]].F.[dR].L.[Hyp].[meL].D.R.I.[am]}$$$$V2.0): the pEC50 is more than 6.00. In the case of `CCCCCCCCN1CCC[C@H](C(=O)N[C@@H](Cc2ccccc2)C(=O)N[C@H](CCCNC(=N)N)C(=O)N[C@@H](CC(C)C)C(=O)N2C[C@H](O)C[C@H]2C(=O)N(C)[C@@H](CC(C)C)C(=O)N[C@@H](CC(=O)O)C(=O)N[C@@H](CCCNC(=N)N)C(=O)N[C@H](C(N)=O)[C@@H](C)CC)C1` [JAL-1297, Oct-Sni-Phe-arg-Leu-Hyp-Nml-Asp-Arg-Ile-NH2] (HELM PEPTIDE1{[CCCCCCCCN1CCC[C@H](C(=O)[*:2])C1].F.[dR].L.[Hyp].[meL].D.R.I.[am]}$$$$V2.0) it was more than 6.00. As for `CCCCCCCC(=O)N[C@H](C)C(=O)N[C@@H](Cc1ccc(Cl)cc1)C(=O)N[C@H](CC(C)C)C(=O)N[C@@H](CC(C)C)C(=O)N1C[C@H](O)C[C@H]1C(=O)N(C)[C@@H](CC(C)C)C(=O)N[C@@H](CC(=O)O)C(=O)N[C@@H](CCCNC(=N)N)C(=O)N[C@H](C(N)=O)[C@@H](C)CC` [JAL-1043, Occ-ala-Pcf-leu-Leu-Hyp-Nml-Asp-Arg-Ile-NH2] (HELM PEPTIDE1{[CCCCCCCC(=O)[*:2]].[dA].[O=C([C@H](Cc1ccc(Cl)cc1)N[*:1])[*:2]].[dL].L.[Hyp].[meL].D.R.I.[am]}$$$$V2.0), the pEC50 was more than 6.00.

Regarding `CCCCCCCC(=O)N1CCC[C@H](C(=O)N[C@@H](Cc2ccc(C)cc2)C(=O)N[C@H](CC(C)C)C(=O)N[C@@H](CC(C)C)C(=O)N2C[C@H](O)C[C@H]2C(=O)N(C)[C@@H](CC(C)C)C(=O)N[C@@H](CC(=O)O)C(=O)N[C@@H](CCCNC(=N)N)C(=O)N[C@H](C(N)=O)[C@@H](C)CC)C1` [JAL-1494, Occ-Sni-Pmf-leu-Leu-Hyp-Nml-Asp-Arg-Ile-NH2] (Octanoyl-[X2][Phe(4-Me)][dL]L[Hyp][NMeL]DRI-NH2), the pEC50 was more than 6.00. In the case of `CCCCCCCC(=O)N1CCC[C@H](C(=O)N[C@@H](Cc2ccccc2)C(=O)N[C@H](CCCC)C(=O)N[C@@H](CC(C)C)C(=O)N2C[C@H](O)C[C@H]2C(=O)N[C@@H](CC(C)C)C(=O)N[C@@H](CC(=O)O)C(=O)N[C@@H](CCCNC(=N)N)C(=O)N[C@H](C(N)=O)[C@@H](C)CC)C1` [JAL-1024, Occ-Sni-Phe-nle-Leu-Hyp-Leu-Asp-Arg-Ile-NH2] (Octanoyl-[X2]F[dNle]L[Hyp]LDRI-NH2) it was more than 6.00; in that of `CCCCCCCC(=O)N[C@H](C)C(=O)N[C@@H](Cc1ccccc1)C(=O)N[C@H](CC(C)C)C(=O)N[C@@H](CC(C)C)C(=O)N1C[C@H](O)C[C@H]1C(=O)N(C)[C@@H](CC(C)C)C(=O)N[C@@H](CC(=O)O)C(=O)N[C@@H](CCCNC(=N)N)C(=O)NC(CC)(CC)C(N)=O` [JAL-1416, Occ-ala-Phe-leu-Leu-Hyp-Nml-Asp-Arg-Deg-NH2] (HELM PEPTIDE1{[CCCCCCCC(=O)[*:2]].[dA].F.[dL].L.[Hyp].[meL].D.R.[CCC(CC)(N[*:1])C(=O)[*:2]].[am]}$$$$V2.0), more than 6.00. Consider `CCCCc1cnc(N2CCC[C@H](C(=O)N[C@@H](Cc3ccccc3)C(=O)N[C@H](CC(C)C)C(=O)N[C@@H](CC(C)C)C(=O)N3C[C@H](O)C[C@H]3C(=O)N(C)[C@@H](CC(C)C)C(=O)N[C@@H](CC(=O)O)C(=O)N[C@@H](CCCNC(=N)N)C(=O)N[C@H](C(N)=O)[C@@H](C)CC)C2)s1` [JAL-1382, Sbt-Sni-Phe-leu-Leu-Hyp-Nml-Asp-Arg-Ile-NH2] (HELM PEPTIDE1{[CCCCc1cnc(N2CCC[C@H](C(=O)[*:2])C2)s1].F.[dL].L.[Hyp].[meL].D.R.I.[am]}$$$$V2.0), for which the pEC50 is more than 6.00. As for `CCCCCCCC(=O)N1CCC[C@H](C(=O)N[C@@H](Cc2ccc(Br)cc2)C(=O)N[C@H](CC(C)C)C(=O)N[C@@H](CC(C)C)C(=O)N2C[C@H](O)C[C@H]2C(=O)N(C)[C@@H](CC(C)C)C(=O)N[C@@H](CC(=O)O)C(=O)N[C@@H](CCCNC(=N)N)C(=O)N[C@H](C(N)=O)[C@@H](C)CC)C1` [JAL-1619, Occ-Sni-Pbf-leu-Leu-Hyp-Nml-Asp-Arg-Ile-NH2] (Octanoyl-[X2][Phe(4-Br)][dL]L[Hyp][NMeL]DRI-NH2), the figure is more than 6.00. As for `CCCCCCCC(=O)N1CCC[C@H](C(=O)N[C@@H](Cc2ccccc2)C(=O)N[C@H](CC(C)C)C(=O)N[C@@H](CC(C)C)C(=O)N2C[C@H](O)C[C@H]2C(=O)N(C)[C@@H](CC(C)C)C(=O)N[C@@H](CC(=O)O)C(=O)N[C@@H](CCCNC(=N)N)C(=O)N(C)[C@H](C(N)=O)[C@@H](C)CC)C1` [JAL-1569, Occ-Sni-Phe-leu-Leu-Hyp-Nml-Asp-Arg-Nmi-NH2] (HELM PEPTIDE1{[CCCCCCCC(=O)[*:2]].[O=C([C@H]1CCCN([*:1])C1)[*:2]].F.[dL].L.[Hyp].[meL].D.R.[meI].[am]}$$$$V2.0), the figure is more than 6.00; as for `CCCCCCCC(=O)N1CCC[C@H](C(=O)N[C@@H](Cc2ccccc2)C(=O)N[C@H](CCCNC(=N)N)C(=O)N[C@@H](CC(C)C)C(=O)N2C[C@H](N)C[C@H]2C(=O)N(C)[C@@H](CC(C)C)C(=O)N[C@@H](CC(=O)O)C(=O)N[C@@H](CCCNC(=N)N)C(=O)N[C@H](C(N)=O)[C@@H](C)CC)C1` [JAL-1317, Occ-Sni-Phe-arg-Leu-Tap-Nml-Asp-Arg-Ile-NH2] (Octanoyl-[X2]F[dR]L[Pro(4R-NH2)][NMeL]DRI-NH2), more than 6.00. In the case of `CCCCCCCCN1CCC[C@H](C(=O)N[C@@H](Cc2ccccc2)C(=O)N[C@H](CC(C)C)C(=O)N[C@@H](CC(C)C)C(=O)N2C[C@H](N)C[C@H]2C(=O)N(C)[C@@H](CC(C)C)C(=O)N[C@@H](CC(=O)O)C(=O)N[C@@H](CCCNC(=N)N)C(=O)NC2CCCCCC2)C1` [JAL-1843, Oct-Sni-Phe-leu-Leu-Tap-Nml-Asp-Arg-Che] (X1-F[dL]L[Pro(4R-NH2)][NMeL]DR-NHcycloheptyl) it was more than 6.00.
